Experiment [1] deals with P. aeruginosa PAO-infected murine lung sections. In words: CLSM of lung sections of infected and uninfected mice. The note with it: after i.v. injection. The format is in vivo. As for the experimental part:
For more detailed insights into the localization of divalent LecA ligand 21 and the control Sulfo-Cyanine7, lung sections of infected and uninfected mice were prepared and analyzed by CLSM. […] Signals corresponding to 21 were localized in cellular accumulations around medium-sized blood vessels. Particle-shaped signals and signals clustered into larger dots were observed. […] Possibly, signals detected in lung sections stained with a divalent LecA imaging probe are due to complexes of membrane-bound LecA with 21. These particle-shaped complexes probably represent the divalent imaging probe 21 bound to bacterial cells. Additionally, it is possible that larger dots are attributed to accumulated bacteria in phagocytes such as neutrophils, monocytes, and dendritic cells. However, intracellular detection using the divalent LecA imaging probe 21 has not yet been analyzed and requires further experiments.
Figure 7 Confocal laser scanning microscopy analysis of P. aeruginosa PAO-infected murine lung sections using divalent LecA imaging probe 21. Sections of cryopreserved murine lungs infected with P. aeruginosa were prepared and analyzed by CLSM after intravenous injection of divalent LecA imaging probe 21 (A) or the control Sulfo-Cyanine7 free acid (B). Lung sections of uninfected animals were used as a control after i.v. injection of 21 (C) or control Sulfo-Cyanine7 free acid (D). Cell nuclei are shown in red (DAPI) and green signals correspond to 21 or Sulfo-Cyanine7 free acid, respectively. Green signals were detected only in infected lung sections after injection of divalent LecA ligand 21. Signals were located in cellular accumulations around medium-sized blood vessels. Scale bar for A and B = 100 μm and for C and D = […]. […]
Lung sections and ex vivo imaging of P. aeruginosa
Sections of 8 µm were made from the frozen lung lobes using a cryostat (Leica, Germany). The sections were mounted on adhesive slides, dried overnight at room temperature and mounted with a DAPI containing gel. Confocal imaging was performed on a Leica SP8 […]
system equipped with a super -continuum white light laser (WLL) and a multi - photon laser source (MP) through a water immersion objective (Leica HC FLUOTAR L 25x/1,0 with a motorized correction ring). Images (1024x1024 pixels) were acquired using the MP excitation of 720 nm and emission band ([…]) for detecting DAPI and the WLL at 730 nm excitation with an emission band 748 nm – 848 nm for Cyanine7 employing non-descanned or descanned HyD detectors, respectively. Further image analysis and image overlay was performed in ImageJ2 software.27 […]

Experiment [2] relates to P. aeruginosa PAO (DSM 1707) lung infection. In words: Optical in vivo imaging and ex situ organ analysis in acute P. aeruginosa airway infection model. Also noted: species or system mice. On the procedure: Encouraged by the high affinity of the imaging probes and their ability to stain P. aeruginosa biofilms in vitro, we further investigated the compounds in vivo using an acute P. aeruginosa airway infection model in mice. Intratracheal administration of P. aeruginosa PAO (DSM 1707) results in a local infection that is mainly restricted to the lungs. With the infection dose of 2 × 10^6 cfu/50 μL chosen here, the number of bacteria peaks at 6 h after infection before the host immune system clears the bacteria.[70]
Then, imaging probes, divalent LecA-targeting probe 21, LecB-targeting probe 22 and the control sulfo-Cy7 (free acid), were administered intravenously to the tail vein 2 h post infection. […] This accumulation in the lungs was then confirmed by a subsequent ex vivo analysis of the organs.
Figure 6 Optical in vivo imaging in mice and ex situ analysis of organs with P. aeruginosa PAO acute lung infection. In vivo imaging of mice with P. aeruginosa intratracheal infection (right) or uninfected control mice (left) after intravenous administration of imaging probes 2 h post infection: (A) 50 nmol/20 g divalent LecA probe 21 or (B) 100 nmol/20 g LecB probe 22. Then, explanted lungs were analyzed for fluorescence intensity, shown as a false color scale in (C) divalent LecA probe 21 (left: uninfected, right: infected) and (D) LecB probe 22 (left: uninfected; middle: uninfected control without dye; right: infected). (E) Quantification of the average radiant efficiency of the divalent LecA ligand 21 and the control sulfo-Cy7 free acid in the lungs of uninfected and infected mice. Duplicate data points and the mean are depicted. (F) Average radiant efficiency was quantified for the LecB imaging probe 22 in lungs of infected and uninfected mice. In addition, (G) further mouse organs were explanted after i.v. injection of 21 (50 nmol/20 g) or control sulfo-Cy7 free acid (50 nmol/20 g) and imaged. Organs of uninfected (left), infected (right) mice, and uninfected mice without any dye (upper middle on the sulfo-Cy7 free acid rows) were compared. Fluorescence intensities are shown as false color pictures. […]
Lung infection model and in vivo imaging of P. aeruginosa
C57BL/6J and albino (Tyrc2J) C57BL/6 mice were bred and housed at the Central Animal Facility, Hannover Medical School, Germany. Animal experiments were performed with permission number: 33.9-42502-04-16/2072 from the Lower Saxony State Office for Consumer Protection and Food Safety (LAVES), Germany. Mice were anesthetized with 3% isoflurane (CP Pharma) and infected intratracheally with 2x10^6 cfu/50 µL of P. aeruginosa PAO (DSM1707, Braunschweig, Germany) as described previously.26
50 – 100 nmol sulfo-Cyanine7-compound (divalent LecA probe 21; LecB probe 22; control sulfoCy7 free acid, CAS no.: 2104632-30-4, Lumiprobe; control sulfoCy7 azide, 20, Lumiprobe) per 20 g mouse was injected intravenously 2 h after infection. Optical imaging was performed 4 – 7 h after compound administration. Mice were anesthetized with 3% isoflurane […]
an in vivo imaging system (IVIS SpectrumCT, PerkinElmer). Subsequently mice were euthanized and organs were imaged (675/760 nm) ex situ individually. To enhance Cyanine7 specific fluorescent signal spectral unmixing was performed on in vivo images using LivingImage 4.7 (PerkinElmer). […]

The next experiment addresses T1, LecB (PAO1) (Pseudomonas aeruginosa, UniProt Q9HYN5).
T1 construct: made in house
In words: Direct binding assay based on fluorescence polarization, titration with LecB. (Fluorescence polarisation rises when a labelled molecule tumbles more slowly, as on binding a larger partner.)

The target in the next experiment is T2, LecA (Pseudomonas aeruginosa, UniProt Q05097).
T2 construct: made in house
In words: Direct binding assay based on fluorescence polarization, titration with LecA. The note with it: negative controls.

The subject of experiment [3] is P. aeruginosa PAO1 biofilm aggregates. The experiment in a line: In vitro biofilm staining under static conditions (CLSM). As to conditions: 10 μM probe. In kind it is cell-based, Pseudomonas aeruginosa. On the procedure: The ability of LecA- and LecB-targeting probes to image P. aeruginosa biofilms was evaluated in vitro. P. aeruginosa PAO1, constitutively expressing mCherry from plasmid pMP7605,[56] was cultivated in microtiter plates under shaking conditions to form biofilm aggregates, as reported previously.[43] Fluorescein-carbohydrate conjugates were added to the bacterial culture to reach a final concentration of 10 μM and biofilms were analyzed by confocal laser scanning microscopy (CLSM) under static conditions (Figures 2 and S4). […] To our surprise, the intended negative control xyloside 8 also stained the P. aeruginosa biofilms (Figures 2C and S4). In all cases, the green signal originating from the fluorescein conjugates was not homogeneously spread over the entire structure of the biofilm aggregates, but a certain heterogeneity was observed across biofilm regions as bright spots. Further, the intensity of staining varied between replicates (see the Supporting Information for individual experiments). […] Instead, only a very faint green shadow was detected for 9 indicating its suitability as a negative control. Thus, the observed biofilm staining with imaging probes 2, 3, 6, 7 and also xyloside 8 was carbohydrate dependent and while 2, 3 and 6, 7 are ligands of LecA and LecB, respectively, the molecular mechanism of xyloside 8 remains elusive.
One representative image of stained aggregates is shown. […] Scale bar = 50 μm.
P. aeruginosa PAO1 expressing the red fluorescent protein mCherry (pMP7605)23 was selected for this study. For this, P. aeruginosa PAO1 (DSM 19880, Braunschweig, Germany) was transformed with the mCherry plasmid (pMP7605).23 Bacteria were stored at -80 °C. For experimental use, bacteria were streaked on lysogeny broth (LB) agar (1% tryptone, 1% NaCl, 0,5% yeast extract, 1.3% agar) containing 60 µg/mL gentamicin (Gm) and incubated at 37 °C overnight. For liquid cultures, bacterial colonies were transferred from LB agar to 10 mL LB (1% tryptone, 1% NaCl, 0,5% yeast extract) containing 60 µg/mL Gm and incubated at 37 °C and 180 rpm overnight. For exponential growth, 10 mL of LB containing 60 µg/mL Gm were inoculated with P. aeruginosa PAO1 mCherry (pMP7605)23 using an overnight liquid culture […]
In vitro biofilm staining under static conditions
Biofilm staining experiments were performed in analogy to Wagner et al. with P. aeruginosa PAO1 pMP7605 (Figure S4).23,24 Bacterial overnight cultures were inoculated from single colonies in 5 mL LB supplemented with gentamicin (120 µg/mL) and grown at 37 °C and 180 rpm. The bacterial overnight cultures were then diluted to OD600 of 0.02 with LB and 500 µL of culture per well were transferred to 24-well plate (24CG, Art. No. 5231 or 24FC, Art. No. 3231). The biofilm was grown under shaking conditions (180 rpm) at 37 °C for 20–24 h. Biofilm aggregates were visualized using a confocal laser scanning microscope (Leica TCS Sp8 CLSM) using a 25× numerical-aperture water objective. Z-stacks (463 x 463 μm) were recorded every 2 μm for mCherry (ex.: 561 nm, red) and for fluorescein containing imaging compounds (ex.: 488 nm, green). […]
Maximum Intensity Projections (contrast range automatically adjusted by Imaris). Only one staining experiment was carried out for imaging probes 4 and S26, all other fluorescein conjugates were analyzed in at least three independent experiments.

T1 sequence (Q9HYN5 entry or part of it): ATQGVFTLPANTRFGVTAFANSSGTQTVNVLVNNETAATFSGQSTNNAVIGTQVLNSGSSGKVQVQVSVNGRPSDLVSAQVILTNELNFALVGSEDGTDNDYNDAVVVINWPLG
T2 sequence (Q05097 whole entry): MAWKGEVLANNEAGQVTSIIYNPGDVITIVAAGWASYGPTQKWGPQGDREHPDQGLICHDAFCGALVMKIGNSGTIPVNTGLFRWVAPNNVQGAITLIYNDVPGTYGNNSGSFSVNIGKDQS
Procedure for LecA: The binding affinities of imaging probes 2–4 for LecA were determined using a direct binding assay based on fluorescence polarization (FP).[47]
(A, C) Monovalent LecA imaging probes 2–4 based on phenyl β-D-galactoside (1) were titrated with LecA. […] (E) Xyloside-fluorescein conjugate (8) and azido fluorescein (9) served as negative controls in titrations with LecA and LecB, respectively. Averages and standard deviations were determined from at least three independent titrations of technical triplicates each.
(§1) Direct binding affinity determination of LecA and LecB imaging probes was performed with direct titration of protein and imaging probes in TBS/Ca2+ buffer. Protein dilution series was prepared in 96 well plates and 10 µL of each dilution in triplicates were mixed with 10 µL of fluorescent compound (20 nM) in 384-well microtiter plates (Greiner Bio-One, Germany, cat no 781900). The plates were centrifuged (1 min, 500 g), sealed and incubated for 2 h in dark wet chamber under gentle shaking. Fluorescence was measured on a PheraStar FS plate reader (BMG Labtech GmbH, Germany) with excitation filters at 485 nm and emission filters at 535 nm. The data were analysed with MARS Data Analysis Software (BMG Labtech GmbH, Germany) to calculate Kd values.
Procedure for LecB (PAO1): Averages and standard deviations were determined from at least three independent titrations of technical triplicates each.
as §1

Turning to `CN1/C(=C/C=C2C=C(/C=C/C3=[N+](CCCCCC(=O)NCCCn4cc(CCN(Cc5ccc(NC(=O)CCc6ccc(O[C@@H]7O[C@H](CO)[C@H](O)[C@H](O)[C@H]7O)cc6)cc5)Cc5ccc(NC(=O)CCc6ccc(O[C@@H]7O[C@H](CO)[C@H](O)[C@H](O)[C@H]7O)cc6)cc5)nn4)c4ccc(S(=O)(=O)[O-])cc4C3(C)C)CCC/2)C(C)(C)c2cc(S(=O)(=O)O)ccc21` [compound 21], in experiment [1], the “Cyanine7 signals in lung sections, infected mice” value is reported as “Cyanine7 signals were exemplarily visible” and the “Cyanine7 signals in lung sections, uninfected mice” value is recorded as “no signals were detected”. In experiment [2] (ex vivo analysis of organs, infected vs uninfected mice), the “Average fluorescence radiant efficiency of explanted lungs” value is “elevated compared with uninfected mice”. Also, the “Cyanine7 signal in lung area, optical in vivo imaging” value in experiment [2] (i.v. 2 h post infection, infected vs uninfected mice, 21 50 nmol/20 g, 22 100 nmol/20 g) is given as “elevated Cyanine7 signals in the area of the lung of infected mice compared to uninfected mice”. Moreover, in experiment [2] (infected vs uninfected animals), the “Fluorescence ex vivo in kidneys” value is “moderately increased signals compared to uninfected animals”. In addition, the “Fluorescence ex vivo in lungs of uninfected animals compared to control sulfo-Cyanine7 (free acid)” value in experiment [2] (uninfected mice, ex vivo quantification) is listed as “a certain accumulation in the lungs of uninfected animals”.
Regarding `O=C1OC2(c3ccc(O)cc3Oc3cc(O)ccc32)c2ccc(NC(=S)NCCOCCOCCOCCn3cc(CNc4ccc(S[C@@H]5OC[C@@H](O)[C@H](O)[C@H]5O)cc4)nn3)cc21` [compound 8], at LecB (PAO1) (negative control), the “Binding to LecB in direct FP titration” value is listed as “inability to bind”. Further, on LecA, the “Binding to LecA in direct FP titration” value is given as “inability to bind”. Also, the “Staining of biofilm aggregates” value in experiment [3] is “also stained”.
A word on the Kd: it is the equilibrium constant for the complex coming apart. Higher therefore signals lower affinity. With `C[C@@H]1O[C@H](CNS(=O)(=O)c2ccc(OCc3cn(CCOCCOCCOCCNC(=S)Nc4ccc5c(c4)C(=O)OC54c5ccc(O)cc5Oc5cc(O)ccc54)nn3)cc2)[C@@H](O)[C@H](O)[C@@H]1O` [compound 7], at LecB (PAO1), the Kd was 840 ± 110 nM. For the same compound, the “Staining of biofilm aggregates” value in experiment [3] is given as “accumulated at the biofilm aggregates, although with weaker staining”.
Turning to `C[N+]1=C(C=CC2=CC(=CC=C3N(CCCCCC(=O)O)c4ccc(S(=O)(=O)[O-])cc4C3(C)C)CCC2)C(C)(C)c2cc(S(=O)(=O)[O-])ccc21.[Na+]` [Sulfo-Cyanine7, reference compound], in experiment [1], the “Cyanine7 signals in lung sections, infected mice” value was “no signals were detected” and the “Cyanine7 signals in lung sections, uninfected mice” value is listed as “no signals were detected”.
Turning to `C[C@@H]1O[C@H](CNS(=O)(=O)c2ccc(-c3cn(CCOCCOCCOCCNC(=S)Nc4ccc5c(c4)C(=O)OC54c5ccc(O)cc5Oc5cc(O)ccc54)nn3)s2)[C@@H](O)[C@H](O)[C@@H]1O` [compound 6], at LecB (PAO1), the affinity, expressed as Kd, was 1650 ± 140 nM. Further, in experiment [3], the “Staining of biofilm aggregates” value was “accumulated at the biofilm aggregates, although with weaker staining”.

Values taken from publication PMC11672137, “High-Affinity Lectin Ligands Enable the Detection of Pathogenic Pseudomonas aeruginosa Biofilms: Implications for Diagnostics and Therapy” (JACS Au, 2024).
